Data taken from patent US8865716B2, “Dihydropteridinones II” (Boehringer Ingelheim International GmbH, priority 2013, dated 2014).

What follows are molecules tested on Aβ42 (assay: Aβ42 production in H4 neuroglioma cells stably expressing human APP695 (Meso Scale Discovery electrochemiluminescence assay)). Details: higher ratio = more specific inhibition of Aβ42 over Aβ total.
Format: cell-based
Experimental: Cells were plated out to near confluency. The compounds to be tested were received as 10 mM stocks in 100% DMSO. A dilution series was initially generated in 100% DMSO and then diluted 200-fold in cell culture media such that the tested concentration range was 30 μM to 0.1 nM and the final DMSO concentration was 0.5%. The diluted compounds were incubated with the cells for 22 hours in an incubator at 37° C. and 5% CO2. Aβ42 as well as Aβ total levels were then measured post-incubation from the supernatant of the cells. Aβ42 levels were determined using a specific electrochemiluminescence assay provided by Meso Scale Discovery (Catalog #L21CA-1) according to the manufacturer's protocol. Aβ total levels were likewise determined using a specific electrochemiluminescence assay provided by Meso Scale Discovery (Catalog #L21ZA-1) according to the manufacturer's protocol.
In order to absolutely define the described compounds as modulators of γ-Secretase as opposed to simply inhibitors of γ-Secretase, measurements of not only Aβ42 but also Aβ total are performed.
In the case of COc1cc(Nc2ncc3c(n2)N(C)C2(CCOCC2)C(=O)N3C)ccc1-c1cnc(C)o1 [Example 1], the “Ratio Aβ(total)/Aβ42 (Aβ total IC50/Aβ42 IC50)” value (“Ratio Aβ(total)/Aβ42” below) is reported as over 244.
With COc1cc(Nc2ncc3c(n2)N(C)C2(CCOCC2)C(=O)N3C)ccc1-n1cnc(C)c1 [Example 2] the “Ratio Aβ(total)/Aβ42” value was 89.
In the case of Cc1ncc(-c2ccc(Nc3ncc4c(n3)N(C)C3(CCOCC3)C(=O)N4C)cn2)o1 [Example 3], the “Ratio Aβ(total)/Aβ42” value is reported as over 6.
With Cc1ncc(-c2ccc(Nc3nc(C)c4c(n3)N(C)C3(CCOCC3)C(=O)N4C)cn2)o1 [Example 5] the “Ratio Aβ(total)/Aβ42” value was over 9.
With COc1cc(Nc2ncc3c(n2)N(C)C2(CCOC2)C(=O)N3C)ccc1-n1cnc(C)c1 (stereo not shown) [Example 6] the “Ratio Aβ(total)/Aβ42” value was over 136.
For COc1cc(Nc2ncc3c(n2)N(C)C2(CCOC2)C(=O)N3C)ccc1-c1cnc(C)o1 (stereo not shown) [Example 7], the “Ratio Aβ(total)/Aβ42” value was over 315.
Cc1ncc(-c2ccc(Nc3ncc4c(n3)N(C)C3(CCOC3)C(=O)N4C)cn2)o1 (stereo not shown) [Example 8] was tested, and the “Ratio Aβ(total)/Aβ42” value was over 10.
With COc1cc(Nc2ncc3c(n2)N(C)C2(CCOCC2)C(=O)N3)ccc1-n1cnc(C)c1 [Example 9] the “Ratio Aβ(total)/Aβ42” value was over 101.
For COc1cc(Nc2ncc3c(n2)N(C)C2(CCOC2)C(=O)N3)ccc1-n1cnc(C)c1 (stereo not shown) [Example 10], the “Ratio Aβ(total)/Aβ42” value was 46.
With COCCN1C(=O)C2(CCOCC2)N(C)c2nc(Nc3ccc(-n4cnc(C)c4)c(OC)c3)ncc21 [Example 11] the “Ratio Aβ(total)/Aβ42” value was 26.
For COCCN1C(=O)C2(CCOCC2)N(C)c2nc(Nc3ccc(-c4ccnc(C)c4)cc3)ncc21 [Example 12], the “Ratio Aβ(total)/Aβ42” value was 11.
In the case of COCCN1C(=O)C2(CCOCC2)N(C)c2nc(Nc3ccc(-n4cnc(C)n4)c(OC)c3)ncc21 [Example 13], the “Ratio Aβ(total)/Aβ42” value is reported as over 13.
COCCN1C(=O)C2(CCOC2)N(C)c2nc(Nc3ccc(-c4ccnc(C)c4)cc3)ncc21 (stereo not shown) [Example 14] was tested, and the “Ratio Aβ(total)/Aβ42” value was over 27.
COCCN1C(=O)C2(CCOC2)N(C)c2nc(Nc3ccc(-n4cnc(C)n4)c(OC)c3)ncc21 (stereo not shown) [Example 15] was tested, and the “Ratio Aβ(total)/Aβ42” value was over 15.
COCCN1C(=O)C2(CCOC2)N(C)c2nc(Nc3ccc(-n4cnc(C)c4)c(OC)c3)ncc21 (stereo not shown) [Example 16] was tested, and the “Ratio Aβ(total)/Aβ42” value was 88.
CCCN1C(=O)C2(CCOCC2)N(C)c2nc(Nc3ccc(-n4cnc(C)c4)c(OC)c3)ncc21 [Example 17] was tested, and the “Ratio Aβ(total)/Aβ42” value was 65.
With Cc1cn(-c2ccc(Nc3ncc4c(n3)NC3(CCOC3)C(=O)N4C)cc2C#N)cn1 (stereo not shown) [Example 19] the “Ratio Aβ(total)/Aβ42” value was over 257.
In the case of COc1cc(Nc2ncc3c(n2)NC2(CCOC2)C(=O)N3C)ccc1-n1cnc(C)c1 (stereo not shown) [Example 20], the “Ratio Aβ(total)/Aβ42” value is reported as over 90.
COc1cc(Nc2ncc3c(n2)NC2(CCOC2)C(=O)N3CC2CCOCC2)ccc1-n1cnc(C)c1 (stereo not shown) [Example 22] was tested, and the “Ratio Aβ(total)/Aβ42” value was over 9.
COc1cc(Nc2ncc3c(n2)N(CC2CCOCC2)C2(CCOC2)C(=O)N3CC2CCOCC2)ccc1-n1cnc(C)c1 (stereo not shown) [Example 24] was tested, and the “Ratio Aβ(total)/Aβ42” value was over 10.
With COc1cc(Nc2ncc3c(n2)N(C)C2(COCCOC2)C(=O)N3)ccc1-n1cnc(C)c1 [Example 25] the “Ratio Aβ(total)/Aβ42” value was 91.
In the case of COc1cc(Nc2ncc3c(n2)N(C)C2(CCOC2)C(=O)N3CC2CCOCC2)ccc1-n1cnc(C)c1 (stereo not shown) [Example 26], the “Ratio Aβ(total)/Aβ42” value is reported as 46.
With COc1cc(Nc2ncc3c(n2)N(C)C2(COCCOC2)C(=O)N3C)ccc1-n1cnc(C)c1 [Example 27] the “Ratio Aβ(total)/Aβ42” value was over 112.
With COc1cc(Nc2ncc3c(n2)NC2(CCOC2)C(=O)N3C2COC2)ccc1-n1cnc(C)c1 (stereo not shown) [Example 28] the “Ratio Aβ(total)/Aβ42” value was over 3.
For COc1cc(Nc2ncc3c(n2)NC2(CCOC2)C(=O)N3CCC(C)C)ccc1-n1cnc(C)c1 (stereo not shown) [Example 29], the “Ratio Aβ(total)/Aβ42” value was 39.
With COCCN1c2nc(Nc3ccc(-n4cnc(C)c4)c(OC)c3)nc(CC(C)C)c2N(C)C(=O)C12CCOC2 (stereo not shown) [Example 30] the “Ratio Aβ(total)/Aβ42” value was 96.
For COCCN1c2nc(Nc3ccc(-c4cnc(C)o4)c(OC)c3)nc(CC(C)C)c2N(C)C(=O)C12CCOC2 (stereo not shown) [Example 31], the “Ratio Aβ(total)/Aβ42” value was 47.
For CCc1nc(Nc2ccc(-n3cnc(C)c3)c(C#N)c2)nc2c1N(C)C(=O)C1(CCOC1)N2C (stereo not shown) [Example 35], the “Ratio Aβ(total)/Aβ42” value was 180.
In the case of Cc1ncc(-c2ccc(Nc3ncc4c(n3)N(C)C3(CCc5ccccc5C3)C(=O)N4C)cn2)o1 (stereo not shown) [Example 37], the “Ratio Aβ(total)/Aβ42” value is reported as 29.
For COc1cc(Nc2ncc3c(n2)N(C)C2(CCOCC2)C(=O)N3C2CC2)ccc1-n1cnc(C)c1 [Example 37b], the “Ratio Aβ(total)/Aβ42” value was 47.
In the case of COc1cc(Nc2ncc3c(n2)N(C)C2(CCOCC2)C(=O)N3c2cc(F)cc(F)c2)ccc1-n1cnc(C)c1 [Example 37c], the “Ratio Aβ(total)/Aβ42” value is reported as 75.
In the case of COc1cc(Nc2nc3c(c(C(F)(F)F)n2)N(C)C(=O)C2(CCOCC2)N3C)ccc1-n1cnc(C)c1 [Example 37d], the “Ratio Aβ(total)/Aβ42” value is reported as over 36.
With COc1cc(Nc2ncc3c(n2)N(C)C2(CCOC2)C(=O)N3CC(F)(F)F)ccc1-n1cnc(C)c1 (stereo not shown) [Example 37e] the “Ratio Aβ(total)/Aβ42” value was 82.
With COc1cc(Nc2ncc3c(n2)N(C)C2(CCOCC2)C(=O)N3c2ccc(F)cc2)ccc1-n1cnc(C)c1 [Example 37f] the “Ratio Aβ(total)/Aβ42” value was 55.
COc1cc(Nc2ncc3c(n2)N(C)C2(CCOC2)C(=O)N3C2CC2)ccc1-n1cnc(C)c1 (stereo not shown) [Example 37g] was tested, and the “Ratio Aβ(total)/Aβ42” value was 58.
For COc1cc(Nc2ncc3c(n2)N(C)C2(CCOC2)C(=O)N3CC(F)F)ccc1-n1cnc(C)c1 (stereo not shown) [Example 37h], the “Ratio Aβ(total)/Aβ42” value was 85.
In the case of CCc1nc(Nc2cnc(-n3cnc(C)c3)c(OC)c2)nc2c1N(C)C(=O)C1(CC1)N2C [Example 37i], the “Ratio Aβ(total)/Aβ42” value is reported as 54.
COc1cc(Nc2ncc3c(n2)N(C)C2(CCOCC2)C(=O)N3Cc2ccc(F)cc2F)ccc1-n1cnc(C)c1 [Example 37j] was tested, and the “Ratio Aβ(total)/Aβ42” value was 57.
In the case of COc1cc(Nc2ncc3c(n2)N(C)C2(CCOC2)C(=O)N3C(C)c2ccccn2)ccc1-n1cnc(C)c1 (stereo not shown) [Example 37k], the “Ratio Aβ(total)/Aβ42” value is reported as 88.
In the case of COc1cc(Nc2ncc3c(n2)N(C2CCCC2)C2(CC2)C(=O)N3C)ccc1-n1cnc(C)c1 [Example 38], the “Ratio Aβ(total)/Aβ42” value is reported as over 15.
For COc1cc(Nc2ncc3c(n2)N(C)C2(CCCCOC2)C(=O)N3C)ccc1-n1cnc(C)c1 (stereo not shown) [Example 39], the “Ratio Aβ(total)/Aβ42” value was 91.
For COc1cc(Nc2nc3c(c(C(C)(C)O)n2)N(C)C(=O)C2(CCOC2)N3C)ccc1-c1cnc(C)o1 (stereo not shown) [Example 40], the “Ratio Aβ(total)/Aβ42” value was over 62.
COc1cc(Nc2ncc3c(n2)N(C)C2(COC2)C(=O)N3C)ccc1-n1cnc(C)c1 [Example 41] was tested, and the “Ratio Aβ(total)/Aβ42” value was over 25.
With COc1cc(Nc2ncc3c(n2)N(C)C2(CCCOCC2)C(=O)N3C)ccc1-n1cnc(C)c1 (stereo not shown) [Example 42] the “Ratio Aβ(total)/Aβ42” value was 51.
In the case of COc1cc(Nc2ncc3c(n2)N(C)C2(CC2)C(=O)N3CC(F)(F)F)ccc1-n1cnc(C)c1 [Example 44], the “Ratio Aβ(total)/Aβ42” value is reported as 50.
With COc1cc(Nc2ncc3c(n2)N(C)C2(CCC2)C(=O)N3CC(F)(F)F)ccc1-c1cnc(C)o1 [Example 45] the “Ratio Aβ(total)/Aβ42” value was over 517.
With COc1cc(Nc2ncc3c(n2)N(C)C2(CC2)C(=O)N3c2ccc(F)cc2)ccc1-n1cnc(C)c1 [Example 46] the “Ratio Aβ(total)/Aβ42” value was over 306.
With COc1cc(Nc2ncc3c(n2)N(C)C2(CC2)C(=O)N3C2COC2)ccc1-n1cnc(C)c1 [Example 47] the “Ratio Aβ(total)/Aβ42” value was 98.
For COc1cc(Nc2ncc3c(n2)N(C)C2(CCOC2)C(=O)N3c2ccc(C(F)(F)F)cn2)ccc1-n1cnc(C)c1 (stereo not shown) [Example 48], the “Ratio Aβ(total)/Aβ42” value was 22.
COc1cc(Nc2ncc3c(n2)N(C)C2(CC4CCC2C4)C(=O)N3C)cnc1-n1cnc(C)c1 (stereo not shown) [Example 49] was tested, and the “Ratio Aβ(total)/Aβ42” value was 69.
With COc1cc(Nc2ncc3c(n2)N(C)C2(CC2)C(=O)N3CC(F)(F)F)cnc1-n1cnc(C)c1 [Example 50] the “Ratio Aβ(total)/Aβ42” value was over 147.
For COc1cc(Nc2ncc3c(n2)N(C)C2(CC2)C(=O)N3CC(F)F)ccc1-n1cnc(C)c1 [Example 52], the “Ratio Aβ(total)/Aβ42” value was 61.
